Six molecules from publication PMC6070649, “The solute transport and binding profile of a novel nucleobase cation symporter 2 from the honeybee pathogen Paenibacillus larvae” (FEBS Open Bio, 2018) can be followed below.

The target in data set [1] is T1, PlUacP (P. larvae uric acid permease-like protein) (Paenibacillus larvae, UniProt V9VZQ8).
T1 construct: gene pbuX
T1 sequence (V9VZQ8 1-434): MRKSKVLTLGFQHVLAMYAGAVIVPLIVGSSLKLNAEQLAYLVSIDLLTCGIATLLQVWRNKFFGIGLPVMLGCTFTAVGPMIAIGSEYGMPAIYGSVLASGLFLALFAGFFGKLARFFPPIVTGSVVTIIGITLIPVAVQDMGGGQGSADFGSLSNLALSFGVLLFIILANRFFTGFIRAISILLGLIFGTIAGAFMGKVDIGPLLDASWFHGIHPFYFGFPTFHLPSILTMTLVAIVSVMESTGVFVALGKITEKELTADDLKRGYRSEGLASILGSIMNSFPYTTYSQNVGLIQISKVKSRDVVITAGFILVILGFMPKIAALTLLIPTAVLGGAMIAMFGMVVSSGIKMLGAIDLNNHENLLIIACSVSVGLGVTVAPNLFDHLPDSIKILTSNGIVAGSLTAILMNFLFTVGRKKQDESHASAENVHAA
Nature of the data set: competition with [3H]-adenine uptake in yeast. The class given is cell-based. The settings on record: competitive; 1 μM [2,8-3H]-adenine, 1 mM unlabelled competitor, S. cerevisiae RG191, 5 min.

Substrate in data set [2]: Nc1ncnc2nc[nH]c12
Nature of the data set: cells, lysate or membranes. The note with it: labelled compound [2,8-3H]-adenine 0.1-30 μM, S. cerevisiae RG191, 10 min, 100 mM citrate pH 3.5, 1% glucose, Lineweaver-Burk.

On to `Nc1cc[nH]c(=O)n1` [cytosine], for which the “% adenine uptake at 1 mM competitor” value in data set [1] is “guanine, cytosine, hypoxanthine, xanthine, uric acid, and uracil all compete with adenine”.
The same measure, in the same setting: with `Nc1nc2[nH]cnc2c(=O)[nH]1` [guanine] the entry was “guanine, cytosine, hypoxanthine, xanthine, uric acid, and uracil all compete with adenine”.
On the same count and under the same terms, for `O=c1[nH]cnc2nc[nH]c12` [hypoxanthine] the value was “guanine, cytosine, hypoxanthine, xanthine, uric acid, and uracil all compete with adenine”.
For `O=c1[nH]c(=O)c2[nH]c(=O)[nH]c2[nH]1` [uric acid], the “% adenine uptake at 1 mM competitor” value in data set [1] was “guanine, cytosine, hypoxanthine, xanthine, uric acid, and uracil all compete with adenine”.
As to `O=c1[nH]c(=O)c2[nH]cnc2[nH]1` [xanthine], the “% adenine uptake at 1 mM competitor” value in data set [1] was “guanine, cytosine, hypoxanthine, xanthine, uric acid, and uracil all compete with adenine”.

B1: PlUacP (P. larvae uric acid permease-like protein) (Paenibacillus larvae subsp. larvae DSM 25430) (protein)
chain: T1 sequence (V9VZQ8 1-434)
What is called Km is the concentration of substrate that gives half-maximal velocity. B1: the Km in data set [2] was determined as 7.04 ± 0.18 µM.
